pEC50: −log10 of the molar value.
Test system: phosphorylation of Hsp27 (Ser78) in Thp-1 human acute monocytic leukemia cells
Assay: MK2 cellular assay, detection of total and phospho-Hsp27 (Serine 78) by MSD ELISA (Thp1)
Format: cell-based
Settings: Thp-1 cells, 1 hour compound, then 50 ng/mL LPS for 45 minutes, read-out: pHSP27 signaling EC50
Description: MK2 Cellular Assay—Detection of Total and Phospho-Hsp27 (Serine 78) by MSD ELISA (Thp1)
Compounds of the invention can be assayed in Thp-1 human acute monocytic leukemia cells to measure inhibition of MK2 activity according to procedures detailed in the '463 application.
Specifically, Thp-1 cells were grown in culture medium containing RPMI/10% FBS (fetal bovine serum)/0.05 mM 2-mercaptoethanol. 72 hours prior to the assay, 8×10^4 cells per well were plated in a 96 well flat bottom plate along with 10 ng/mL phorbol 12-myristate 13-acetate (PMA). Cells were cultured in an incubator at 37° C. until needed for the assay. Cell plate media was replaced with culture media just prior to assay while compound dilutions were being made.
Stock solutions of test compound, 1 mM in DMSO, were prepared. […]
The MULTI-SPOT Phospho(Ser78)/Total HSP27 ELISA Assay kit was purchased from Meso Scale […] (MSD; catalog #K15128D). […] 150 μl/well 1×MSD read buffer was added (4× read buffer supplied with kit) and the plate was analyzed on the MSD SECTOR®Imager for analysis. The SECTOR®Imager measures intensity of emitted light to provide a quantitative measure of phosphorylated HSP27 (Ser78) and total HSP27 present in the sample. The relative percent phosphoprotein in a sample is calculated by dividing the Phospho-HSP27 signal intensity over the total HSP27 signal intensity measured in each well.

Structure (SMILES): CCOCc1cnc(Cl)nc1Oc1ccc2c(ccc3sc4c(c32)NC[C@H](C)NC4=O)n1 [Compound I-82]
- pEC50: 6.30 to 7.00

From US11098057B2, “9,10,11,12-tetrahydro-8H-[1,4]diazepino[5′,6′:4,5]thieno[3,2-F]quinolin-8-one compounds and uses thereof” (Celgene CAR LLC, priority 2017, dated 2021)
